Consider nine compounds from ChEMBL document CHEMBL1201862, “PubChem BioAssay data set” (2004).

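Protocol summary: plate cells (96-well), add compound at 5 concentrations, incubate 48 h, interpolate endpoints linearly. Here, GI50 denotes the concentration required for 50% inhibition of growth.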 Active and inactive are the calls of the source. Rule as the data show it: active = GI50 up to about 1.1 µM and inactive = higher.

What all share (experiment): NCI-60 cell line screen, 48 h
Experiment [1] concerns OVCAR-5.
Experiment [2] relates to M14.
Experiment [3] has as its system 786-0.
In experiment [4] the test system is MDA-N.
Experiment [5] has as its system IGROV-1.
In experiment [6] the test system is CAKI-1.
For experiment [7], the system named is UO-31.
In experiment [8] the test system is HOP-62.
Experiment [9] concerns Malme-3M.
For experiment [10], the system named is ACHN.
Experiment [11] concerns LOX IMVI.
Experiment [12] concerns SNB-19.
The test system of experiment [13] is SN12C.
Experiment [14] relates to NCI-H460.
Experiment [15] has as its system SF-295.
Experiment [16] concerns EKVX.
Experiment [17] deals with HCC 2998.
Experiment [18] deals with COLO 205.
In experiment [19] the test system is HOP-92.
The subject of experiment [20] is SK-MEL-28.

Take `O=C1c2ccccc2S(=O)(=O)c2cc(-c3nn[nH]n3)ccc21` [DOXANTRAZOLE]: the GI50 in experiment [1] is > 100 µM (inactive); in experiment [2], > 100 µM (inactive); in [3], > 100 µM (inactive); in [4], > 100 µM (inactive); in experiment [5], > 95.3 µM (inactive); in [6], > 87.3 µM (inactive). In addition, the GI50 in experiment [7], in experiment [8], in [9], in experiment [10], in experiment [11] and in experiment [12] was > 100 µM (inactive) in each case. In addition, the GI50 in experiment [13], in [14], in experiment [15], in experiment [16], in [17] and in experiment [18] was > 100 µM (inactive) throughout. In addition, the GI50 in experiment [19] and in [20] was > 100 µM (inactive) each time.

With `Oc1cccc2c(Cl)ccnc12`, the GI50 in [1] is 5.22 µM (inactive); in experiment [2], 1.44 µM (inactive); in [3], 10.9 µM (inactive); in experiment [4] it was 3.58 µM (inactive); in experiment [5] it was 1.61 µM (inactive); in [6], 2.39 µM (inactive). The GI50 is 1.37 µM (inactive) in experiment [7]; 1.95 µM (inactive) in experiment [8]; 6.97 µM (inactive) in [9]; 1.99 µM (inactive) in [10]; 0.384 µM (active) in experiment [11]; 23 µM (inactive) in experiment [12]. Moreover, the GI50 is 1.2 µM (inactive) in experiment [13]; 3.08 µM (inactive) in experiment [14]; 0.889 µM (active) in experiment [15]; 11.7 µM (inactive) in [16]; 4.43 µM (inactive) in [17]; 14.3 µM (inactive) in [18]. The GI50 in experiment [19] was 2.84 µM (inactive); in [20], 7.69 µM (inactive).

In the case of `O=S(=O)(O)SCCNCCCCCC1CCCCC1`, the GI50 in experiment [1] was 9.64 µM (inactive); in experiment [2] it was 4.95 µM (inactive); in experiment [3], 13.4 µM (inactive); in [4], 12.8 µM (inactive); in experiment [5], 8.65 µM (inactive); in experiment [6], 19 µM (inactive). In addition, the GI50 in experiment [7] was 13.9 µM (inactive); in experiment [8] it was 7.43 µM (inactive); in [9] it was 18.8 µM (inactive); in experiment [10], 16.1 µM (inactive); in experiment [11], 2.14 µM (inactive); in experiment [12], 5.46 µM (inactive). The GI50 was 6.12 µM (inactive) in experiment [13]; 4.72 µM (inactive) in experiment [14]; 5.86 µM (inactive) in experiment [15]; 9.73 µM (inactive) in [16]; 5.41 µM (inactive) in [17]; 16.6 µM (inactive) in experiment [18]. The GI50 in [19] was 20.8 µM (inactive); in experiment [20], 4.26 µM (inactive).

Consider `Cc1nc(O)nc2nc3ccc(Cl)cc3c(NC(C)(CO)CO)c12`, for which the GI50 in experiment [1] is > 100 µM (inactive); in experiment [2], > 100 µM (inactive); in experiment [3] it was > 57.4 µM (inactive); in experiment [4], 99.1 µM (inactive); in [5] it was 49.9 µM (inactive); in [6], 13.9 µM (inactive). The GI50 in [7] was 4.49 µM (inactive); in experiment [8], 21.2 µM (inactive); in experiment [9], > 100 µM (inactive); in experiment [10], 39 µM (inactive); in experiment [11] it was 55.6 µM (inactive); in [12], 45.2 µM (inactive). Also, the GI50 is > 100 µM (inactive) in experiment [13]; > 71.1 µM (inactive) in [14]; 66.5 µM (inactive) in experiment [15]; 24.9 µM (inactive) in experiment [16]; > 100 µM (inactive) in experiment [17]; > 100 µM (inactive) in experiment [18]. For the same compound, the results for the GI50 in [19] and in experiment [20] were 74.1 µM (inactive) and > 100 µM (inactive), respectively.

For the compound `Clc1ccc(-c2nn3c(COc4ccc(OCc5nnc6sc(-c7ccc(Cl)cc7)nn56)c(Cl)c4)nnc3s2)cc1`, the GI50 was 24.2 µM (inactive) in [1]; 31.7 µM (inactive) in experiment [2]; 13.7 µM (inactive) in experiment [3]; 22 µM (inactive) in experiment [4]; 18.9 µM (inactive) in experiment [5]; 21.6 µM (inactive) in [6]. For the same compound, the GI50 in experiment [7] was 17.3 µM (inactive); in experiment [8] it was 23.2 µM (inactive); in [9], 37.3 µM (inactive); in experiment [10], 44.2 µM (inactive); in experiment [11] it was 17.9 µM (inactive); in [12] it was 14.6 µM (inactive). Moreover, the GI50 in experiment [13] was > 100 µM (inactive); in experiment [14], 52 µM (inactive); in experiment [15] it was 26.5 µM (inactive); in experiment [16], 27 µM (inactive); in [17] it was 20.2 µM (inactive); in experiment [18], 57.8 µM (inactive). Moreover, the values for the GI50 in [19] and in experiment [20] were 17.5 µM (inactive) and 31.3 µM (inactive), respectively.

`COc1cc(/C=C/C(=N\NC(N)=S)c2sc(NNC(C)=O)nc2C)ccc1O`: the GI50 in experiment [1], in experiment [2], in experiment [3], in experiment [4], in experiment [5] and in experiment [6] was > 100 µM (inactive) each time. Also, the GI50 in experiment [7], in experiment [8], in experiment [9], in experiment [10], in experiment [11] and in experiment [12] was > 100 µM (inactive) throughout. Also, the GI50 in experiment [13], in experiment [14], in experiment [15], in [16], in [17] and in experiment [18] was > 100 µM (inactive) throughout. For the same compound, the GI50 in experiment [19] and in experiment [20] was > 100 µM (inactive) in each case.

With `CN(C)S(=O)(=O)n1cnc(CO)c1`, the GI50 in [1], in experiment [2], in experiment [3], in experiment [4], in [5] and in [6] was > 100 µM (inactive) in each case. Besides, the GI50 in experiment [7], in experiment [8], in [9], in experiment [10], in [11] and in experiment [12] was > 100 µM (inactive) each time. In addition, the GI50 in experiment [13], in experiment [14], in experiment [15], in experiment [16], in experiment [17] and in experiment [18] was > 100 µM (inactive) throughout. For the same compound, the GI50 in experiment [19] and in experiment [20] was > 100 µM (inactive) in each case.

For the compound `CCOC(=O)C(NC(=O)c1ccccc1)(Nc1ccc(S(=O)(=O)Nc2cc(C)on2)cc1)C(F)(F)F` (stereo not given), the GI50 in experiment [1], in experiment [2], in [3], in experiment [4], in [5] and in experiment [6] was > 100 µM (inactive) in each case. The GI50 in experiment [7], in experiment [8], in experiment [9], in experiment [10], in [11] and in [12] was > 100 µM (inactive) each time. The GI50 in [13], in experiment [14], in experiment [15], in experiment [16], in experiment [17] and in [18] was > 100 µM (inactive) each time. Besides, the GI50 in experiment [19] and in experiment [20] was > 100 µM (inactive) throughout.

Take `COC(=O)c1cc(CNCCc2c[nH]c3ccccc23)on1`: the GI50 in [1] was > 100 µM (inactive); in [2] it was > 100 µM (inactive); in experiment [3], 33.8 µM (inactive); in experiment [4], > 100 µM (inactive); in [5], > 100 µM (inactive); in [6], > 78.2 µM (inactive). For the same compound, the GI50 in [7] is > 100 µM (inactive); in experiment [8], > 100 µM (inactive); in experiment [9], > 100 µM (inactive); in [10] it was > 60.8 µM (inactive); in experiment [11] it was > 100 µM (inactive); in [12], > 100 µM (inactive). In addition, the GI50 in [13] was > 100 µM (inactive); in experiment [14], > 58.1 µM (inactive); in experiment [15], > 91.8 µM (inactive); in [16], > 100 µM (inactive); in experiment [17] it was > 95.5 µM (inactive); in experiment [18], > 100 µM (inactive). The values for the GI50 in experiment [19] and in experiment [20] were 92.5 µM (inactive) and > 100 µM (inactive), respectively.
